According to patent publication US20230295131A1, “INHIBITORS OF RHO-ASSOCIATED COILED-COIL KINASE” (Angion Biomedica Corp., priority 2020, published 2023):
Like-named read-outs stand apart in the source and are kept apart here.

Experiments:
[1] = molecular target: T1, ROCK1 (Homo sapiens, UniProt Q13464); assay: ROCK1 kinase binding affinity, DiscoverX KINOMEscan KdELECT; conditions: 11-point 3-fold dilution
T1 construct: T7 phage fusion (kinase-tagged phage) or DNA tag for qPCR detection
Method in brief: (§1)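 Competition binding of DNA- or phage-tagged kinase to immobilised ligand beads, with bound kinase quantified by qPCR of eluates.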

[2] = molecular target: T2, ROCK2 (Homo sapiens, UniProt O75116); assay: ROCK2 kinase binding affinity, DiscoverX KINOMEscan KdELECT; conditions: for Kd: KINOMEscan KdELECT, 11-point 3-fold dilution, read-out: Kd (μM) ROCK2; for ROCK2 Selectivity: selectivity for ROCK2 over ROCK1 from Kd
T2 construct: T7 phage fusion (kinase-tagged phage) or DNA tag for qPCR detection
T2 sequence (O75116 whole entry, the tested form may be a part): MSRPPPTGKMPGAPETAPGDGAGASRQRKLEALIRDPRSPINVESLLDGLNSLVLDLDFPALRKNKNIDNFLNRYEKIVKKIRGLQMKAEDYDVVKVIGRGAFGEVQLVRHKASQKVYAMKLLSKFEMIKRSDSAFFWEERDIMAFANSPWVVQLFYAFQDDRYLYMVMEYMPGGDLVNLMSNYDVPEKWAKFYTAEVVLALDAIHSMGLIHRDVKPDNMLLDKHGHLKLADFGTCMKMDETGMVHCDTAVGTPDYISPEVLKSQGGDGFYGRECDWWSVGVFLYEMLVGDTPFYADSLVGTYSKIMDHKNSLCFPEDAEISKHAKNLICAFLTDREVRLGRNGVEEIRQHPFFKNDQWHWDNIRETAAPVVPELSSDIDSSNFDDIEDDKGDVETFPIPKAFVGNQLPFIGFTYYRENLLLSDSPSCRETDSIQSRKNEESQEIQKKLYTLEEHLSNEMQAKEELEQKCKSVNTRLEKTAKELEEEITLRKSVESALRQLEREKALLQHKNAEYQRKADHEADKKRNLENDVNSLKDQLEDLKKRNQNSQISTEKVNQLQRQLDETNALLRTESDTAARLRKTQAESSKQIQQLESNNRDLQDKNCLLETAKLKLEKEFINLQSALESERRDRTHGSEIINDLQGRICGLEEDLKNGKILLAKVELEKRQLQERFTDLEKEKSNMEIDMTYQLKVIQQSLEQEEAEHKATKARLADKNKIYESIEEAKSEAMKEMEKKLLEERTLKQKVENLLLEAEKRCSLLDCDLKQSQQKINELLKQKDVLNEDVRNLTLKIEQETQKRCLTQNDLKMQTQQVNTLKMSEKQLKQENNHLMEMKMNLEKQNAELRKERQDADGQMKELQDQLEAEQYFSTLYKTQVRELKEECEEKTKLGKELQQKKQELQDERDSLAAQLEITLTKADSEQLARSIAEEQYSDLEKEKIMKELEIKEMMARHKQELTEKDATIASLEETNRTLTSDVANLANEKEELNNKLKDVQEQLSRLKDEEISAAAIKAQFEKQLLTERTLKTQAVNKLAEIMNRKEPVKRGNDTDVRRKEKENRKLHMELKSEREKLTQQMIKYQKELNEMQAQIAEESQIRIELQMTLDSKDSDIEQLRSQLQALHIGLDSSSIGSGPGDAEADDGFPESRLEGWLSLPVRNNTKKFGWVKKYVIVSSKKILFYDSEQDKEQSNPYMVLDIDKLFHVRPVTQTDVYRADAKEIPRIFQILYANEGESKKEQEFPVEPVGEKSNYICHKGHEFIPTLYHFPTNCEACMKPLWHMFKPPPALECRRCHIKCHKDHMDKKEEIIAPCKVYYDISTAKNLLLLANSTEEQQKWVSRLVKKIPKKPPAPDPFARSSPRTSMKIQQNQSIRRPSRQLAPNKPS
Method in brief: as §1

[3] = tested on: Hepatic stellate cells; assay: Gel contraction assay (TGFβ1-induced); assay type: cell-based; conditions: test compound at 100 μM, 1 hour pretreatment, TGFβ1 24 hours
Protocol: Hepatic stellate cells were plated onto collagen coated plates and pretreated with test compound (at 100 μM) for 1 hour. TGFβ1 is then added for 24 hours, and images are taken.

[4] = 12-16 weeks of dosing in healthy volunteers and patients; cited from earlier work
[5] = tested on: fibroblasts; conditions: fibroblasts treated with KD025; cited from earlier work
[6] = tested on: murine autoimmune disease; conditions: KD025 administration; cited from earlier work
[7] = tested on: chronic hepatitis C infection; conditions: cited from earlier work
[8] = tested on: HCC; conditions: HCC patients at advanced stage; cited from earlier work

T1 sequence (Q13464 whole entry, the tested form may be a part): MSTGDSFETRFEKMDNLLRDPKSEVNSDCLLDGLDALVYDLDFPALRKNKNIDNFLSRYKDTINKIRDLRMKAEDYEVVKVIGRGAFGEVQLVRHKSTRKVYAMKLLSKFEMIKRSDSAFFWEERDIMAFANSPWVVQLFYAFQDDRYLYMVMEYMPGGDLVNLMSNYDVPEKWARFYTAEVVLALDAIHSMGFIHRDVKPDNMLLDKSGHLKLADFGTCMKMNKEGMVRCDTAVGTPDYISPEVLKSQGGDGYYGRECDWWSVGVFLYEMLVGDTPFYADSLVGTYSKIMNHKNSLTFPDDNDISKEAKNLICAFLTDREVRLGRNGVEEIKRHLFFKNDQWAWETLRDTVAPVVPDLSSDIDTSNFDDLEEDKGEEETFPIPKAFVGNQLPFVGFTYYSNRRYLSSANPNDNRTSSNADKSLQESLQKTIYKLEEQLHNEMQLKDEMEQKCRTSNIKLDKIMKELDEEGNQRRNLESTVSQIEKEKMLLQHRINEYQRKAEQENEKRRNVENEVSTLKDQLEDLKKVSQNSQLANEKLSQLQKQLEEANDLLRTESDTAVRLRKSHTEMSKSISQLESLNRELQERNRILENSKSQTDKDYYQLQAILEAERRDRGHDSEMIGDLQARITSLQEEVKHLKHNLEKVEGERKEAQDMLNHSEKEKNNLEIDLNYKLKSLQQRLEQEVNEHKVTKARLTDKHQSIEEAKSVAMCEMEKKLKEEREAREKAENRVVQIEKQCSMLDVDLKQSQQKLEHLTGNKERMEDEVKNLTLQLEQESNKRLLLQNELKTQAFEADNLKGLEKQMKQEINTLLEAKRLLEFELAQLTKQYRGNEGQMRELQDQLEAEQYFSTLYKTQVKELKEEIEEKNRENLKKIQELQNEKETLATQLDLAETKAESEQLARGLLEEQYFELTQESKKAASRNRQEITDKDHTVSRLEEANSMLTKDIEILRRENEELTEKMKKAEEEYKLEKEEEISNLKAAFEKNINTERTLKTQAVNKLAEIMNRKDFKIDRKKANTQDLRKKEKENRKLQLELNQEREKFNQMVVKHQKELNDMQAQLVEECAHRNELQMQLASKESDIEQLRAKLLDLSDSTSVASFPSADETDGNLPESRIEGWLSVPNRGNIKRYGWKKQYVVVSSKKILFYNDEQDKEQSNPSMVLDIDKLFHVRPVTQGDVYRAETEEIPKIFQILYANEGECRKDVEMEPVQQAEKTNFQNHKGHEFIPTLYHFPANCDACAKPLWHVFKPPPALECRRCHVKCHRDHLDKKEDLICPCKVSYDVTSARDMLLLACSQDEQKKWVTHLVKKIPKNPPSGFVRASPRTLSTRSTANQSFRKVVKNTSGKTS

Compound | Kd [1] [µM] | Kd [2] [µM] | ROCK2 Selectivity [2] | further results
O[C@H]1CC[C@@H](Nc2nccc(-c3nccc(C#Cc4ccc5[nH]nc(F)c5c4)n3)n2)CC1 [Ex. 93, (1s,4s)-4-((4-((3-Fluoro-1H-Indazol-5-yl)ethynyl)-[2,4′-bipyrimidin]-2′-yl)amino)cyclohexanol] | 1 to 9.9 | < 0.01 | **** (>500-fold selectivity for ROCK2) | TGFβ1-induced gel contraction in hepatic stellate cells [3]: significantly attenuated
CC(C)NC(=O)COc1cccc(-c2nc(Nc3ccc4[nH]ncc4c3)c3ccccc3n2)c1 [KD025] |  |  |  | hemodynamic or other side effects [4]: no hemodynamic or other side effects; expression of profibrotic mRNA including CTGF [5]: decreased; expression of pro-inflammatory, fibrosis-linked cytokines [6]: decreased; murine autoimmune disease [6]: mitigated
interferon |  |  |  | response to antiviral therapy ([7]; in combination with ribavirin): ~50%; response to antiviral therapy ([7]; used alone): ~20%
COC(=O)[C@H]1CC[C@H](Nc2nccc(-c3nccc(C#Cc4ccc5[nH]ncc5c4)n3)n2)CC1 [Ex. 86, (1r,4r)-Methyl 4-((4-((1H-indazol-5-yl)ethynyl)-[2,4′-bipyrimidin]-2′-yl)amino)cyclohexanecarboxylate] | 0.1 to 0.99 | < 0.01 | *** (151 to 500-fold selectivity for ROCK2) | 
Fc1ncccc1CNc1nccc(-c2nccc(C#Cc3ccc4[nH]nc(F)c4c3)n2)n1 [Ex. 43, 4-((3-Fluoro-1H-indazol-5-yl)ethynyl)-N-((2-fluoropyridin-3-yl)methyl)-[2,4′-bipyrimidin]-2′-amine] | 10 to 100 | 0.01 to 0.099 | *** (151 to 500-fold selectivity for ROCK2) | 
CNC(=O)c1cc(Oc2ccc(NC(=O)Nc3ccc(Cl)c(C(F)(F)F)c3)cc2)ccn1 [sorafenib] |  |  |  | extension of median survival [8]: less than 3 months
COC(C)(C)CNc1nccc(-c2nccc(C#Cc3ccc4[nH]ncc4c3)n2)n1 [Ex. 81, 4-((1H-Indazol-5-yl)ethynyl)-N-(2-methoxy-2-methylpropyl)-[2,4′-bipyrimidin]-2′-amine] | 1 to 9.9 | 0.01 to 0.099 | ** (50 to 150-fold selectivity for ROCK2) | 
O[C@H]1CC[C@@H](Nc2nccc(-c3nccc(C#Cc4ccc5[nH]ncc5c4)n3)n2)C1 [Ex. 82, (1S,3R)-3-((4-((1H-Indazol-5-yl)ethynyl)-[2,4′-bipyrimidin]-2′-yl)amino)cyclopentanol] | 0.1 to 0.99 | < 0.01 | **** (>500-fold selectivity for ROCK2) | 
O=C(CNc1nccc(-c2nccc(C#Cc3ccc4[nH]ncc4c3)n2)n1)N1CCOCC1 [Ex. 41, 2-((4-((1H-Indazol-5-yl)ethynyl)-[2,4′-bipyrimidin]-2′-yl)amino)-1-morpholinoethanone] | 1 to 9.9 | < 0.01 | *** (151 to 500-fold selectivity for ROCK2) | 
C(#Cc1ccnc(-c2ccnc(NCc3ccccn3)n2)n1)c1ccc2[nH]ncc2c1 [Ex. 22, 4-((1H-Indazol-5-yl)ethynyl)-N-(pyridin-2-ylmethyl)-[2,4′-bipyrimidin]-2′-amine] | 1 to 9.9 | 0.01 to 0.099 | ** (50 to 150-fold selectivity for ROCK2) | 
C(#Cc1ccnc(-c2ccnc(NCc3ncccn3)n2)n1)c1ccc2[nH]ncc2c1 [Ex. 7, 4-((1H-indazol-5-yl)ethynyl)-N-(pyrimidin-2-ylmethyl)-[2,4′-bipyrimidin]-2′-amine] | 0.1 to 0.99 | 0.01 to 0.099 | * (<50-fold selectivity for ROCK2) | 
C(#Cc1ccnc(-c2ccnc(NCC3CCCO3)n2)n1)c1ccc2[nH]ncc2c1 (centres unmarked) [Ex. 17, 4-((1H-Indazol-5-yl)ethynyl)-N-((tetrahydrofuran-2-yl)methyl)-[2,4′-bipyrimidin]-2′-amine] | 0.1 to 0.99 | < 0.01 | *** (151 to 500-fold selectivity for ROCK2) | 
O=C(O)[C@H]1CC[C@H](Nc2nccc(-c3nccc(C#Cc4ccc5[nH]ncc5c4)n3)n2)CC1 [Ex. 87, (1r,4r)-4-((4-((1H-Indazol-5-yl)ethynyl)-[2,4′-bipyrimidin]-2′-yl)amino)cyclohexanecarboxylic acid] | 1 to 9.9 | 0.1 to 0.99 | * (<50-fold selectivity for ROCK2) | 
CNC(=O)CNc1nccc(-c2nccc(C#Cc3ccc4[nH]ncc4c3)n2)n1 [Ex. 55, 2-((4-((1H-Indazol-5-yl)ethynyl)-[2,4′-bipyrimidin]-2′-yl)amino)-N-methylacetamide] | 1 to 9.9 | 0.01 to 0.099 | ** (50 to 150-fold selectivity for ROCK2) | 
C(#Cc1ccnc(-c2ccnc(NC[C@H]3CCOC3)n2)n1)c1ccc2[nH]ncc2c1 [Ex. 69, (R)-4-((1H-Indazol-5-yl)ethynyl)-N-((tetrahydrofuran-3-yl)methyl)-[2,4′-bipyrimidin]-2′-amine] | 1 to 9.9 | < 0.01 | *** (151 to 500-fold selectivity for ROCK2) | 
